No end group written: not given here.
Assays:
Experiment in all cases: biochemical
Assay type in all cases: binding
HLA-A1 (A*0101) = HLA-A1 (A*0101) (Homo sapiens, UniProt P04439, A114D/A174V/A182V/D101N/D185E/E176A/E190D/L180R/Q94H/R68K/S129P/T187R/V100A/V91M/W191G)
A*2601 = A*2601 (Homo sapiens, UniProt P04439, A114D/A173T/A270S/D101N/D185E/E277Q/E87N/F33Y/G231S/I121R/I218V/K168Q/L180W/L300P/L318F/P208A/P217A/Q86R/Q94H/R138Q/S129P/T187R/T323A/T345S/V100A/V358M)
A*3002 = A*3002 (Homo sapiens, UniProt P04439, D101N/D140H/D185E/E176R/F33S/G80R/H175R/K168Q/Q94H/R138E/R41S/V100E)
A*2902 = A*2902 (Homo sapiens, UniProt P04439, A270S/D101N/D185E/E176V/E277Q/E87Q/F33T/G231S/H175R/I121M/I218V/I322F/K168Q/L300P/L318F/M331R/P208A/P217A/Q86L/T323A/T345S/V100A/V358M)
HLA-A11 (A*1101) = HLA-A11 (A*1101) (Homo sapiens, UniProt P04439, A114D/D185E/E176A/F33Y/L180Q/S129P/T187R)
A31 (A*3101) = A31 (A*3101) (Homo sapiens, UniProt P04439, A270S/D185E/E176V/E277Q/F33T/G231S/G80R/H175R/I121M/I218V/I322F/K168Q/L300P/L318F/M331R/P217A/Q94H/R138Q/T323A/T345S/T97I/V358M)
A*3301 = A*3301 (Homo sapiens, UniProt P04439, A270S/D185E/E176V/E277Q/E87N/F33T/G231S/H175R/I121M/I218V/I322F/K168Q/K210R/L300P/L318F/M331R/P217A/Q86R/Q94H/R138Q/T323A/T345S/T97I/V358M/Y195H)
A*6801 = A*6801 (Homo sapiens, UniProt P04439, A269V/D185E/E176V/E277Q/E87N/F33Y/G231S/I121M/I166T/I218V/L180W/L300P/L318F/N151K/P208A/P217A/Q86R/R169H/T345S)

Sequence of A*3002 (P04439 whole entry, looked up, the tested form may be a part, stated change not applied): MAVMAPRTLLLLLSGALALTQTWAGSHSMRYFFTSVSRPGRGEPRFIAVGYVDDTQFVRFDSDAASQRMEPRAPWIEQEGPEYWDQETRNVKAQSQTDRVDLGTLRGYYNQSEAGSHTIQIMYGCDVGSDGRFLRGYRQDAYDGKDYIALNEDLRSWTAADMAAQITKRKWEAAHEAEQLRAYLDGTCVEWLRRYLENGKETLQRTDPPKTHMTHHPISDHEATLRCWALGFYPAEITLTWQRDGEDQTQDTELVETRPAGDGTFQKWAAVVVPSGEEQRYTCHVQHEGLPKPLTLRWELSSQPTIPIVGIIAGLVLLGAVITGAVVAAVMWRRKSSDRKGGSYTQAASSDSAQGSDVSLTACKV

Compound: VTDDSEIAY [Peptide 1593.13]
- IC50 (HLA-A1 (A*0101)): 22 nM
- IC50 (A*2601): > 20000 nM
- IC50 (A*3002): 10100 nM

Compound: STEWRQRRY [Peptide 9018.0017]
- IC50 (HLA-A1 (A*0101)): 7.1 nM
- IC50 (A*2601): 371 nM
- IC50 (A*3002): 19 nM

Compound: SYEWRLRRY [Peptide 9018.0036]
- IC50 (HLA-A1 (A*0101)): 3700 nM
- IC50 (A*2601): 3220 nM
- IC50 (A*3002): 58 nM

Compound: LFDQLIHMHY [Peptide 9018.0033]
- IC50 (HLA-A1 (A*0101)): 4070 nM
- IC50 (A*2902): 280 nM
- IC50 (A*3002): 47 nM

Compound: VSIEWRKRRY [Peptide 9015.0183]
- IC50 (HLA-A1 (A*0101)): > 20000 nM
- IC50 (A*2902): > 20000 nM
- IC50 (A*3002): 231 nM

Compound: LADQLIHMHY [Peptide 9015.0186]
- IC50 (HLA-A1 (A*0101)): 8.1 nM
- IC50 (A*2902): 3070 nM
- IC50 (A*3002): 817 nM

Compound: LFDQLIHLY [Peptide 9018.0027]
- IC50 (HLA-A1 (A*0101)): 83 nM
- IC50 (A*2902): 45 nM
- IC50 (A*3002): 10 nM

Compound: SSNLQGKLY [Peptide 86.0139]
- IC50 (HLA-A1 (A*0101)): 3030 nM
- IC50 (A*2902): 15900 nM
- IC50 (A*3002): 62 nM

Compound: HTARELHPEY [Peptide 9018.0004]
- IC50 (HLA-A1 (A*0101)): 8 nM
- IC50 (A*2601): 12 nM
- IC50 (A*3002): 9.2 nM

Compound: MWKFDSRLAL [Peptide 1605.17]
- IC50 (HLA-A1 (A*0101)): > 20000 nM
- IC50 (A*2601): > 20000 nM
- IC50 (A*2902): > 20000 nM

Compound: ITKIGPENPY [Peptide 9015.0162]
- IC50 (A*2601): 985 nM
- IC50 (A*2902): > 20000 nM

Compound: IVDDSEIAY [Peptide 1580.04]
- IC50 (A*2601): > 20000 nM
- IC50 (A*3002): 2030 nM

Compound: VWTIVYIEY [Peptide 9015.0089]
- IC50 (HLA-A1 (A*0101)): 6980 nM
- IC50 (A*2601): > 20000 nM

Compound: VTRRANGWFY [Peptide 9018.0011]
- IC50 (HLA-A1 (A*0101)): 25 nM
- IC50 (A*2902): 905 nM
- IC50 (A*3002): 0.71 nM

Compound: QTKGLGISY [Peptide 9015.0031]
- IC50 (HLA-A1 (A*0101)): > 20000 nM
- IC50 (A*2902): > 20000 nM
- IC50 (A*3002): 715 nM

Compound: IVNRVRQGY [Peptide 1595.07]
- IC50 (HLA-A1 (A*0101)): 19800 nM
- IC50 (A*2902): 2030 nM
- IC50 (A*3002): 6.3 nM

Compound: RQEILDLWVY [Peptide 9015.0174]
- IC50 (HLA-A1 (A*0101)): 7250 nM
- IC50 (A*2601): 8720 nM
- IC50 (A*3002): 76 nM

Compound: FSITNWLWY [Peptide 9015.0008]
- IC50 (HLA-A1 (A*0101)): 74 nM
- IC50 (A*2902): 37 nM
- IC50 (A*3002): 870 nM

Compound: HTAREKHPEY [Peptide 9018.0006]
- IC50 (A*2601): 15 nM
- IC50 (A*2902): 4460 nM

Compound: WFDITNWLWY [Peptide 9015.0161]
- IC50 (HLA-A1 (A*0101)): 986 nM
- IC50 (A*2902): 150 nM
- IC50 (A*3002): 1660 nM

Compound: GLADQLIHLY [Peptide 9015.0185]
- IC50 (HLA-A1 (A*0101)): 5520 nM
- IC50 (A*2601): 426 nM
- IC50 (A*3002): 9.2 nM

Compound: LSQMVQWAY [Peptide 1580.03]
- IC50 (HLA-A1 (A*0101)): 25 nM
- IC50 (A*2902): 124 nM
- IC50 (A*3002): 1.8 nM

Compound: SSNTKANILY [Peptide 1580.08]
- IC50 (HLA-A1 (A*0101)): 290 nM
- IC50 (A*2601): 579 nM
- IC50 (A*3002): 33 nM

Compound: NYLVKHHMY [Peptide 9018.0037]
- IC50 (HLA-A1 (A*0101)): 305 nM
- IC50 (A*2902): 63 nM
- IC50 (A*3002): 12 nM

Compound: LTDQLIHMYY [Peptide 9018.0029]
- IC50 (HLA-A1 (A*0101)): 6.3 nM
- IC50 (A*2601): 3210 nM
- IC50 (A*3002): 197 nM

Compound: CC(C)C[C@H](NC(=O)[C@H](CO)NC(=O)[C@@H](N)CCCNC(=N)N)C(=O)N[C@@H](Cc1ccc(O)cc1)C(=O)N[C@@H](CC(N)=O)C(=O)N[C@H](C(=O)N[C@H](C(=O)N[C@@H](C)C(=O)N[C@H](C(=O)N[C@@H](CC(C)C)C(=O)N[C@@H](Cc1ccc(O)cc1)C(=O)O)[C@@H](C)O)C(C)C)[C@@H](C)O [Peptide 1595.06]
- IC50 (HLA-A11 (A*1101)): 148 nM
- IC50 (A31 (A*3101)): 9270 nM
- IC50 (A*3301): > 20000 nM
- IC50 (A*6801): > 20000 nM
- IC50 (HLA-A1 (A*0101)): 221 nM
- IC50 (A*2902): 750 nM
- IC50 (A*3002): 1.2 nM

Compound: LADQLIHMYY [Peptide 9015.0187]
- IC50 (HLA-A1 (A*0101)): 2.5 nM
- IC50 (A*2601): 1780 nM
- IC50 (A*3002): 769 nM

Compound: NTDKSLVKY [Peptide 9018.0008]
- IC50 (HLA-A1 (A*0101)): 7.3 nM
- IC50 (A*2902): 5430 nM
- IC50 (A*3002): 3010 nM

Compound: MSDSQWIKY [Peptide 1593.05]
- IC50 (HLA-A1 (A*0101)): 10 nM
- IC50 (A*2902): 839 nM
- IC50 (A*3002): 434 nM

Compound: VTTIVYIEY [Peptide 9018.0041]
- IC50 (HLA-A1 (A*0101)): 3.6 nM
- IC50 (A*2601): 448 nM
- IC50 (A*3002): 92 nM

Compound: HMARELHPEY [Peptide 9015.0176]
- IC50 (HLA-A1 (A*0101)): 618 nM
- IC50 (A*2601): 1570 nM
- IC50 (A*3002): 33 nM

Compound: GTADQLIHLY [Peptide 9018.0023]
- IC50 (HLA-A1 (A*0101)): 26 nM
- IC50 (A*2601): 68 nM
- IC50 (A*3002): 2 nM

Source: US9340577B2, “HLA binding motifs and peptides and their uses” (priority 1992, dated 2016)
